# Test results: patent US20250018014A1, “METHOD FOR TREATING AND/OR PREVENTING REGNASE-1-RELATED DISEASE” (OSAKA UNIVERSITY, priority 2018, published 2025)
# Read-outs that look alike come from different tables or passages of the source. Residues, ends and D or L forms follow the SMILES beside them.
# Columns and labels:
# [1] = target: T1, binding between TBK1 and full-length Regnase-1 (FL_Reg1) (Homo sapiens, UniProt Q5D1E8); experiment: Inhibition of kinase-Regnase-1 binding by the compounds (AlphaScreen), TBK1
# T1 construct: made in house; host or cells: Expi293 cells
# T1 sequence (Q5D1E8 1-599): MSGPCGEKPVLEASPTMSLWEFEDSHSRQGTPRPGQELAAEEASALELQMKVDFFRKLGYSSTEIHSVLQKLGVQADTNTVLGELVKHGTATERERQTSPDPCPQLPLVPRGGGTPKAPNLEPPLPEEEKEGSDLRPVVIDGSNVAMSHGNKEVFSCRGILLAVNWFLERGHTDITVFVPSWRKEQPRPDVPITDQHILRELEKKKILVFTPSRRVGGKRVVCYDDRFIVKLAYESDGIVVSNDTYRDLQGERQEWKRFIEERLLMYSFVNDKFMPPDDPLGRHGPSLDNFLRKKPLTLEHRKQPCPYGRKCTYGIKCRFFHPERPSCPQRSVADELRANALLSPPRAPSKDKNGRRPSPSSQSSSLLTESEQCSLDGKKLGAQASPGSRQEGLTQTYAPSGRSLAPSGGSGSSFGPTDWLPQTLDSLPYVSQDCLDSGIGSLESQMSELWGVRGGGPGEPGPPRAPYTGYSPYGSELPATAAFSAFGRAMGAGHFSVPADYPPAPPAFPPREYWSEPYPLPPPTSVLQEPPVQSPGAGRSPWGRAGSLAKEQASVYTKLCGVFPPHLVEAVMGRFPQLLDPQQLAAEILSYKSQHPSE
# Method in brief: (§1)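 FLAG-tagged, biotin-acceptor-tagged full-length human Regnase-1 was expressed in Expi293 cells. It was mixed at 2.5 nM with compound, then 2.5 nM IKKβ or TBK1 was added for 2 h at room temperature. Binding was read with anti-FLAG acceptor and glutathione donor beads; IC50 came from dose-response inhibition relative to Regnase-1 alone and DMSO.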
# [2] = target: T2, binding between IKKβ and full-length Regnase-1 (FL_Reg1) (Homo sapiens, UniProt Q5D1E8); experiment: Inhibition of kinase-Regnase-1 binding by the compounds (AlphaScreen), IKKβ
# T2 construct: made in house; host or cells: Expi293 cells
# T2 sequence (Q5D1E8 1-599): T1 sequence (Q5D1E8 1-599)
# Method in brief: as §1
# [3] = Table 12, 2.5 nM Regnase-1, 2.5 nM TBK1, AlphaScreen, read-out: 50% inhibition concentration, binding between Regnase-1 and TBK1, FL_Reg1
# [4] = Table 12, 2.5 nM Regnase-1, 2.5 nM IKKβ, AlphaScreen, read-out: 50% inhibition concentration, binding between Regnase-1 and IKKβ, FL_Reg1
# [5] = Table 13, binding between TBK1 and Regnase-1, read-out: Binding inhibition FL_Reg1, 50% inhibition concentration (TBK1)
# [6] = Table 14, binding between IKKβ and Regnase-1, read-out: Binding inhibition FL_Reg1, 50% inhibition concentration (IKKβ)
SMILES,"IC50 [1, 5] [µM]","IC50 [2, 6] [µM]","IC50 [1, 3] [µM]","IC50 [2, 4] [µM]"
"CC[C@H](C)[C@@H]1NC(=O)[C@H](Cc2ccc(O)cc2)NC(=O)[C@H](C)N(C)C(=O)C[C@@H](C(=O)N2CCCC2)NC(=O)[C@H](CC(C)C)NC(=O)[C@H](CC(=O)O)NC(=O)CNC(=O)[C@H](Cc2ccccc2)NC(=O)[C@H](Cc2ccccc2)NC(=O)[C@H](CC(=O)O)NC(=O)[C@H](Cc2c[nH]c3ccccc23)NC1=O [PP4] (HELM PEPTIDE1{[meA].Y.I.W.D.F.F.G.D.L.D.[C1CCN([*:1])C1]}$PEPTIDE1,PEPTIDE1,1:R1-11:R3$$$V2.0)",,,24.4,47.7
"CC[C@H](C)[C@@H]1NC(=O)[C@H](CCCCN)NC(=O)[C@H](Cc2ccc(O)cc2)NC(=O)[C@H](Cc2c[nH]c3ccccc23)NC(=O)[C@H](CO)NC(=O)[C@H](CO)NC(=O)[C@H]([C@@H](C)O)NC(=O)[C@@H]2CCCN2C(=O)[C@@H](C)N(C)C(=O)C[C@@H](C(=O)N2CCCC2)NC(=O)[C@H](Cc2c[nH]c3ccccc23)NC1=O [PP23] (HELM PEPTIDE1{[C[C@H](C(=O)[*:2])N(C)[*:1]].P.T.S.S.W.Y.K.I.W.D.[C1CCN([*:1])C1]}$PEPTIDE1,PEPTIDE1,1:R1-11:R3$$$V2.0)",9.2,41.3,,

# Second part, led by results:
"IC50 [1, 5] [µM]","IC50 [2, 6] [µM]",SMILES,"IC50 [1, 3] [µM]","IC50 [2, 4] [µM]"
> 62.1,> 62.1,"CC(C)[C@@H]1NC(=O)[C@H](CCCCN)NC(=O)[C@H](Cc2ccc(O)cc2)NC(=O)[C@H](Cc2c[nH]c3ccccc23)NC(=O)[C@H](CO)NC(=O)[C@H]([C@@H](C)O)NC(=O)[C@H](C)N(C)C(=O)C[C@@H](C(=O)N2CCCC2)NC(=O)[C@H](CCC(N)=O)NC(=O)CNC(=O)[C@H](Cc2c[nH]c3ccccc23)NC(=O)[C@H](CC(N)=O)NC1=O [PP1] (HELM PEPTIDE1{[meA].T.S.W.Y.K.V.N.W.G.Q.D.[C1CCN([*:1])C1]}$PEPTIDE1,PEPTIDE1,1:R1-12:R3$$$V2.0)",> 62.1,> 62.1
2.4,5.8,"CC[C@H](C)[C@@H]1NC(=O)[C@H](CCCCN)NC(=O)[C@H](Cc2ccc(O)cc2)NC(=O)[C@H](Cc2ccccc2)NC(=O)[C@H](C(C)C)NC(=O)[C@H](C)N(C)C(=O)C[C@@H](C(=O)N2CCCC2)NC(=O)[C@H](Cc2c[nH]c3ccccc23)NC(=O)[C@H](CC(N)=O)NC(=O)[C@H](Cc2ccc(O)cc2)NC(=O)[C@H](Cc2c[nH]c3ccccc23)NC1=O [PP19] (HELM PEPTIDE1{[meA].V.F.Y.K.I.W.Y.N.W.D.[C1CCN([*:1])C1]}$PEPTIDE1,PEPTIDE1,1:R1-11:R3$$$V2.0)",,
20.2,> 62.1,"CC[C@H](C)[C@@H]1NC(=O)[C@H](CC(N)=O)NC(=O)[C@H](Cc2ccc(O)cc2)NC(=O)[C@H](Cc2c[nH]c3ccccc23)NC(=O)[C@H](CO)NC(=O)[C@H](CC(N)=O)NC(=O)[C@H](CO)NC(=O)[C@H](Cc2ccccc2)NC(=O)[C@H](CC(N)=O)NC(=O)[C@H](C)N(C)C(=O)C[C@@H](C(=O)N2CCCC2)NC(=O)[C@H](Cc2c[nH]c3ccccc23)NC1=O [PP16] (HELM PEPTIDE1{[meA].N.F.S.N.S.W.Y.N.I.W.D.[C1CCN([*:1])C1]}$PEPTIDE1,PEPTIDE1,1:R1-12:R3$$$V2.0)",,
